According to publication PMC8877061, “Antifungal and Antibiofilm Activity of Cyclic Temporin L Peptide Analogues against Albicans and Non-Albicans Candida Species” (Pharmaceutics, 2022):
≈ marks a conversion by molar mass, not a printed value. Like-named read-outs stand apart in the source and are kept apart here. Positions of bridges follow the written chain, without caps; N, C: chain ends. Non-standard residues stand in square brackets, D forms with d. Residues, ends and D or L forms follow the SMILES beside them. Triazole bridges read from a SMILES are 1,4-linked. Lys(N3) = [N-]=[N+]=NCCCC[C@H](N)C(=O)O; Pra = C#CC[C@H](N)C(=O)O

Experiments:
C. glabrata DSM 11226 = type: cell-based
Procedure: (§1) C. albicans ATCC 90028, C. auris DSM 21092, C. glabrata DSM 11226, C. tropicalis DSM11951 and C. parapsilosis DSM 4874 grown on YPD Agar (1% w/v yeast extract, 2% w/v peptone, 2% w/v glucose, 1.5% Agar) were cultured in Tryptone soya broth supplemented with 0.1% glucose for 16–18 h at 37 °C, washed twice using sterile phosphate-buffered saline (PBS) and standardized to […] as required for the experiments. RPMI1640 medium (Thermo Fisher Scientific, Waltham, MA, USA) buffered to a pH of 7.0 with 0.165 M MOPS was used for growing the biofilms of all Candida species.
(§2) The antifungal activity of peptides against all five Candida species was determined according to CLSI-M27-A3 [33], as reported previously. Briefly, the compounds were tested at concentrations ranging from […] to 50 μM, and the organism suspensions were adjusted to an inoculum of 10^6 cell/mL at OD 590 nm in RPMI 1640, added to the 96-well plate and incubated at 37 °C for 24 h. The minimum inhibitory concentration (MIC) values were determined as the lowest concentration inhibiting fungal growth at 590 nm using a microplate reader (Synergy™ H4; BioTek Instruments, Inc., Winooski, VT, USA). […] The MFC was the lowest concentration that yielded no colony growth on the agar. The MFC/MIC ratio was calculated to determine whether the substance had fungistatic (MFC/MIC ≥ 4) or fungicidal (MFC/MIC < 4) activity.

C. auris DSM 21092 = type: cell-based; details: DSM 21092, 24 h
Procedure: as §1, §2

C. tropicalis DSM 11951 = type: cell-based
Procedure: as §1, §2

[1] = ANTS/DPX leakage, eukaryotic membrane-like LUVs; details: peptide 50 μM, Chol/DOPC LUVs 0.1 mM lipid, PBS pH 7.2, 10 min, fluorescence 385/512 nm
Procedure: ANTS/DPX-entrapped large unilamellar vesicles (LUVs) composed of PE/PC/PI/Ergosterol (5:4:1:2, w/w/w/w) and Chol/DOPC (70:30, ratio in moles) were prepared by the extrusion method as previously described in [28]. First, the lipid films were prepared by dissolving lipids in the proper ratio in chloroform to have a final concentration of 0.1 mM and then dried under a nitrogen gas stream. The probes of ANTS (12.5 mM) and DPX (45 mM) dissolved in water were added to the lipid films, and the mixture was freeze-dried overnight. The lipid films with encapsulated ANTS and DPX were hydrated with a PBS 1× buffer (pH = 7.2), vortexed for 1 h, freeze-thawed 6 times and extruded 10 times through 0.1-μm pore size polycarbonate filters to obtain the LUVs. The LUVs with entrapped ANTS and DPX were separated from the free ANTS and DPX by gel filtration chromatography on a Sephadex G-50 column (1.5 × 10 cm). The assay was based on the measurement of dequenching of ANTS by DPX when the LUVs were incubated with peptide concentrations of 5, 10, 15, 20, 30 and 50 μM. The increase in ANT fluorescence was recorded at an excitation fluorescence at 385 nm (slit width: 5 nm) and a fluorescence emission at 512 nm (slit width: 5 nm) for 10 min after the addition of the peptide. The destruction of all LUVs and the complete release of ANTs were obtained after treatment with 10% Triton-X. The percentage of liposome leakage was calculated as %leakage = (Fi − F0)/(Ft − F0), where F0 represents the fluorescence of the intact LUVs before the addition of the peptide and Fi and Ft are the intensities of the fluorescence achieved after peptide and Triton-X treatment, respectively.

[2] = test system: G. mellonella larvae infected by different Candida species; test: G. mellonella fungal infection model (Kaplan-Meier survival); type: in vivo; details: for in vivo effectiveness on infected G. mellonella larvae: 10^6 yeast cells with 12.5 μM peptide, 10 μL injected, 37 °C, different Candida species
Procedure: The G. mellonella fungal infection model was performed as described previously. We first determined the lethal concentrations of C. albicans, C. auris, C. glabrata, C. tropicalis and C. parapsilosis inocula by injecting concentrations of 10^4, 10^5 or 10^6 cells/larvae. The larvae were kept in Petri dishes at 37 °C, and survival was monitored for 3 d. A system of scoring already proposed by Loh et al. based on survival, mobility, degree of melanization, and the ability to produce a cocoon was used to evaluate the physical state of the larvae for 3 days. To evaluate the effects of the five peptides on Candida infection and compare mortality, 10 μL of 10^6 yeast cells in a medium containing 12.5 μM of each peptide’s concentrations was injected into the last left proleg of the larvae and incubated at 37 °C. The larvae were incubated at 37 °C and monitored daily for survival.

C. parapsilosis DSM 5784 = type: cell-based; details: DSM 5784, 24 h
[3] = Circular dichroism in liposomes mimicking eukaryotic membranes; type: physicochemical; details: SUVs DOPC:Chol 70:30, peptide 80 μM; for helical content: CD, phosphate buffer 5 mM pH 7.4, 25 °C, from [θ]222
Procedure: The circular dichroism spectra of the selected peptides (3, 7, 15 and 16) were recorded in small unilamellar vesicles (SUVs) composed of PE/PC/PI/Ergosterol (5:4:1:2, w/w/w/w, final lipid concentration = 0.01 mM) and DOPC/Chol (70:30, ratio in moles, final lipid concentration = 0.1 mM), between 190 and 260 nm on a JASCO J-710 CD spectropolarimeter at 25 °C using quartz cells with a 0.1-cm path length. The SUVs were prepared as reported in the following protocol. Once the lipid films were prepared as described above, they were hydrated with a phosphate buffer (5 mM, pH 7.4) (DOPC:Chol) or water (PE/PC/PI/Ergosterol) for 1 h and sonicated for 40 min. The peptides were dissolved in water to form a sample with a concentration of 80 μM in SUVs made of DOPC/Chol, while a peptide concentration of 10 μM was used in SUVs made of PE/PC/PI/Ergosterol. We accumulated the data three times, and all spectral data were subtracted from the background. Each spectrum converted the signal to the mean molar ellipticity, and we calculated the ratio of the ellipticities at 222 and 208 nm to discriminate between the monomeric and oligomeric states of the helices. The helix content was calculated as follows: [θ]222/(−40,000[1 − 2.5/n)], where [θ]222 is the ellipticity measurement at 222 nm and n is the number of amino acid residues.

[4] = CLSI-M27-A3, RPMI 1640, 10^6 cell/mL, 37 °C, 24 h, read at 590 nm

In the case of `CC(C)C[C@H](NC(=O)[C@@H]1CCCCn2cc(nn2)C[C@H](NC(=O)[C@H](CCCCN)NC(=O)[C@H](CO)NC(=O)[C@H](Cc2ccccc2)NC(=O)[C@H](Cc2c[nH]c3ccccc23)NC(=O)[C@@H]2CCCN2C(=O)[C@@H](NC(=O)[C@@H](N)Cc2ccccc2)C(C)C)C(=O)N[C@H](CC(C)C)C(=O)NCC(=O)N[C@@H](CCCNC(=N)N)C(=O)N1)C(N)=O` [compound 7] (H-FVPWFSK[Pra][dL]GR[Lys(N3)]L-NH2; triazole 8-12; N-terminus assumed), the “MFC, C. glabrata DSM 11226” value (C. glabrata DSM 11226; DSM 11226, 24 h) is reported as 50 µM, the “MIC, C. glabrata DSM 11226” value (C. glabrata DSM 11226; DSM 11226, 24 h) is reported as 50 µM and the “MFC, C. auris DSM 21092” value (C. auris DSM 21092) is reported as >50 µM. For the same compound, the “MIC, C. auris DSM 21092” value (C. auris DSM 21092) was 50 µM, the “MFC, C. tropicalis DSM 11951” value (C. tropicalis DSM 11951; DSM 11951, 24 h) was 50 µM and the “MIC, C. tropicalis DSM 11951” value (C. tropicalis DSM 11951; DSM 11951, 24 h) was 50 µM. The “liposome leakage (ANTS release), eukaryotic membrane-like LUVs” value (from here on “liposome leakage (ANTS release)”) [1] was ~ 28%, the “in vivo effectiveness on infected G. mellonella larvae” value [2] was “in vivo effectiveness” and the “MFC, C. parapsilosis DSM 5784” value (C. parapsilosis DSM 5784) was 50 µM (≈ 79.9 µg/mL). The helical content [3] was ~ 23%.
With `CC[C@H](C)[C@H](NC(=O)[C@H](CCCNC(=N)N)NC(=O)[C@@H]1CCC(=O)NCCCC[C@H](NC(=O)[C@H](Cc2ccccc2)NC(=O)[C@H](Cc2c[nH]c3ccccc23)NC(=O)[C@@H]2CCCN2C(=O)[C@@H](NC(=O)[C@@H](N)Cc2ccccc2)C(C)C)C(=O)N[C@@H](CCCCN)C(=O)N[C@@H](Cc2ccccc2)C(=O)N[C@H](CC(C)C)C(=O)N1)C(=O)N[C@@H](CC(C)C)C(N)=O` [compound 3] (H-FVPWFKKF[dL]ERIL-NH2; lactam 6-10; N-terminus assumed) the “MFC, C. glabrata DSM 11226” value (C. glabrata DSM 11226; DSM 11226, 24 h) was 50 µM, the “MIC, C. glabrata DSM 11226” value (C. glabrata DSM 11226; DSM 11226, 24 h) was 50 µM and the “MFC, C. auris DSM 21092” value (C. auris DSM 21092) was 50 µM. For the same compound, the “MIC, C. auris DSM 21092” value (C. auris DSM 21092) was 50 µM, the “MFC, C. tropicalis DSM 11951” value (C. tropicalis DSM 11951; DSM 11951, 24 h) was 50 µM and the “MIC, C. tropicalis DSM 11951” value (C. tropicalis DSM 11951; DSM 11951, 24 h) was 50 µM. For the same compound, the “liposome leakage (ANTS release)” value [1] was ~ 28%, the “survival rate of infected larvae” value ([2]; 12.5 μM, larvae infected by all strains, after 48 h) was “increased the survival rate” and the “in vivo effectiveness on infected G. mellonella larvae” value [2] was “in vivo effectiveness”. For the same compound, the “MFC, C. parapsilosis DSM 5784” value (C. parapsilosis DSM 5784) was 50 µM (≈ 85.2 µg/mL) and the helical content [3] was ~ 13%.
For `CC[C@H](C)[C@H](NC(=O)[C@H](CCCNC(=N)N)NC(=O)[C@@H]1CCCCNC(=O)CC[C@H](NC(=O)[C@H](Cc2ccccc2)NC(=O)[C@H](Cc2c[nH]c3ccccc23)NC(=O)[C@@H]2CCCN2C(=O)[C@@H](NC(=O)[C@@H](N)Cc2ccccc2)C(C)C)C(=O)N[C@@H](CCCCN)C(=O)N[C@@H](Cc2ccccc2)C(=O)N[C@H](CC(C)C)C(=O)N1)C(=O)N[C@@H](CC(C)C)C(N)=O` [compound 15] (H-FVPWFEKF[dL]KRIL-NH2; lactam 6-10; N-terminus assumed), the “MFC, C. glabrata DSM 11226” value (C. glabrata DSM 11226; DSM 11226, 24 h) was >50 µM, the “MIC, C. glabrata DSM 11226” value (C. glabrata DSM 11226; DSM 11226, 24 h) was 50 µM and the “MFC, C. auris DSM 21092” value (C. auris DSM 21092) was >50 µM. For the same compound, the “MIC, C. auris DSM 21092” value (C. auris DSM 21092) was 50 µM, the “MFC, C. tropicalis DSM 11951” value (C. tropicalis DSM 11951; DSM 11951, 24 h) was >50 µM and the “MIC, C. tropicalis DSM 11951” value (C. tropicalis DSM 11951; DSM 11951, 24 h) was 50 µM. The “in vivo effectiveness on infected G. mellonella larvae” value [2] was “in vivo effectiveness”, the “MFC, C. parapsilosis DSM 5784” value (C. parapsilosis DSM 5784) was 50 µM (≈ 85.2 µg/mL) and the helical content [3] was ~ 48%. The “ratio of the ellipticities at 222 and 208 nm” value ([3]; >1 = helical aggregates) was “greater than 1”.
With `CC[C@H](C)[C@H](NC(=O)[C@H](CCCNC(=N)N)NC(=O)[C@@H]1CSSC[C@H](NC(=O)[C@H](Cc2ccccc2)NC(=O)[C@H](Cc2c[nH]c3ccccc23)NC(=O)[C@@H]2CCCN2C(=O)[C@@H](NC(=O)[C@@H](N)Cc2ccccc2)C(C)C)C(=O)N[C@@H](CCCCN)C(=O)N[C@@H](Cc2ccccc2)C(=O)N[C@H](CC(C)C)C(=O)N1)C(=O)N[C@@H](CC(C)C)C(N)=O` [compound 16] (H-FVPWFCKF[dL]CRIL-NH2; disulfide 6-10; N-terminus assumed) the “MIC, C. glabrata DSM 11226” value (C. glabrata DSM 11226; [4]) was 25 µM, the “MFC, C. glabrata DSM 11226” value (C. glabrata DSM 11226; DSM 11226, 24 h) was 50 µM and the “MFC, C. auris DSM 21092” value (C. auris DSM 21092) was >50 µM. The “MIC, C. auris DSM 21092” value (C. auris DSM 21092) was 50 µM, the “MIC, C. tropicalis DSM 11951” value (C. tropicalis DSM 11951; [4]) was 25 µM and the “MFC, C. tropicalis DSM 11951” value (C. tropicalis DSM 11951; DSM 11951, 24 h) was 50 µM. For the same compound, the “liposome leakage (ANTS release)” value [1] was ~ 28%, the “in vivo effectiveness on infected G. mellonella larvae” value [2] was “in vivo effectiveness” and the “MFC, C. parapsilosis DSM 5784” value (C. parapsilosis DSM 5784) was >50 µM. The “conformation by CD in DOPC:Chol liposomes” value ([3]; 25 °C) was “random coil conformation”.
